Test results from ChEMBL document CHEMBL5212743, “Selectivity Literature for EUbOPEN Chemogenomics Library wave 3” (2023).

Assays:
[1] = target: T1, Mitogen-activated protein kinase kinase kinase 19 (Homo sapiens) (UniProt Q56UN5); test: Selectivity interaction (KinomeScan (DiscoverX)) EUB0000138c MAP3K19; settings: at 100 nM
T1 sequence (whole entry): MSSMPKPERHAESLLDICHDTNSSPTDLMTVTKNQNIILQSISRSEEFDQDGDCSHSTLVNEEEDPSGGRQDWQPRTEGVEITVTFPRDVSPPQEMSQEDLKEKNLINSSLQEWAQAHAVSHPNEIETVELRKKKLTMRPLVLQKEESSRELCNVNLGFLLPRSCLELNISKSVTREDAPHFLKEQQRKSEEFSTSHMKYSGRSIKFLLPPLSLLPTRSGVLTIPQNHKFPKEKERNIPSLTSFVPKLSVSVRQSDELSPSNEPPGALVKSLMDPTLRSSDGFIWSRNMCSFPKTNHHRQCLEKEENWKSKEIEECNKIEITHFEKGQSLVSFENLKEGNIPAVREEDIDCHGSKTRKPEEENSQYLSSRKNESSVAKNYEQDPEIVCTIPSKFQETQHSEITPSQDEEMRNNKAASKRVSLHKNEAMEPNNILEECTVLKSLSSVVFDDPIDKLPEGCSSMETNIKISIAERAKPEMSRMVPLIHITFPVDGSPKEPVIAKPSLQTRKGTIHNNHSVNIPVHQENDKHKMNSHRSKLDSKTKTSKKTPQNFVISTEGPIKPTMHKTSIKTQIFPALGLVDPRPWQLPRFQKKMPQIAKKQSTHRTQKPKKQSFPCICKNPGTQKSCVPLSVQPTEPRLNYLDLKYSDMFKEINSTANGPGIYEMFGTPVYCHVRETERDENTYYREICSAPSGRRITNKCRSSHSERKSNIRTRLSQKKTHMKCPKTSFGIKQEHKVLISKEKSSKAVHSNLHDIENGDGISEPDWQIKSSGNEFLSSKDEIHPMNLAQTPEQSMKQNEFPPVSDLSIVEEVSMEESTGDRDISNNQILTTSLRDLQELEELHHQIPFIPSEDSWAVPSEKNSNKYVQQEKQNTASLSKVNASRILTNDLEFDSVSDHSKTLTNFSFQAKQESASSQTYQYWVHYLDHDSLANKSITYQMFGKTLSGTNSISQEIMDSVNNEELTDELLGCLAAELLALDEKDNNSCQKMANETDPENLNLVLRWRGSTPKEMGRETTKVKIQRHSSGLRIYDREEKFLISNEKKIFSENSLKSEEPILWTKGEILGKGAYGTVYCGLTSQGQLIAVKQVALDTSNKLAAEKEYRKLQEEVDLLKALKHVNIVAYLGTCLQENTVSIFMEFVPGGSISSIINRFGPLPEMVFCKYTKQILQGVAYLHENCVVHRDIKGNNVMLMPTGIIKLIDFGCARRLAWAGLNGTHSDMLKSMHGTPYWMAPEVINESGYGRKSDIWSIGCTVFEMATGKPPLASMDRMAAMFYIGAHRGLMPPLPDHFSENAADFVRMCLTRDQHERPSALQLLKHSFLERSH

[2] = target: Serine/threonine-protein kinase 17A (Homo sapiens, UniProt Q9UEE5); test: Selectivity interaction (KinomeScan (DiscoverX, competition-binding assay)) EUB0000305b STK17A
Serine/threonine-protein kinase 17A, sequence (Q9UEE5 whole entry): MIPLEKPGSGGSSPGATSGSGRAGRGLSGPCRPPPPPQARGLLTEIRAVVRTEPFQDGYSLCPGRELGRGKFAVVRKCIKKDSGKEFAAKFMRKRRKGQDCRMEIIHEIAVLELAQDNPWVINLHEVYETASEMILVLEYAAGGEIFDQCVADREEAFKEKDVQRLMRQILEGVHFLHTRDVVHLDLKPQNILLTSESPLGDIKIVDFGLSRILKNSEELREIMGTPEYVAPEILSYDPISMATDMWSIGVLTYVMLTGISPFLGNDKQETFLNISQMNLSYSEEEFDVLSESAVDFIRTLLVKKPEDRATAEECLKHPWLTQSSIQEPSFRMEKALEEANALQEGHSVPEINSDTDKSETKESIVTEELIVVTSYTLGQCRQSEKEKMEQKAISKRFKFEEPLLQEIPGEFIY

[3] = target: Tyrosine-protein kinase SYK (Homo sapiens, UniProt P43405); test: Selectivity interaction (KinomeScan (DiscoverX)) EUB0000305b SYK; settings: CellTiter-Glo assay (Promega, proliferation in ACHN cells): IC50 = […] nM, https://www.sgc-ffm.uni-frankfurt.de/#!specificprobeove, at 100 nM
[4] = target: T2, Dual specificity mitogen-activated protein kinase kinase 5 (Homo sapiens) (UniProt Q13163); test: Selectivity interaction (KinomeScan (DiscoverX)) EUB0000305b MAP2K5; settings: CellTiter-Glo assay (Promega, proliferation in ACHN cells): IC50 = […] nM, https://www.sgc-ffm.uni-frankfurt.de/#!specificprobeove, at 100 nM
T2 sequence (whole entry): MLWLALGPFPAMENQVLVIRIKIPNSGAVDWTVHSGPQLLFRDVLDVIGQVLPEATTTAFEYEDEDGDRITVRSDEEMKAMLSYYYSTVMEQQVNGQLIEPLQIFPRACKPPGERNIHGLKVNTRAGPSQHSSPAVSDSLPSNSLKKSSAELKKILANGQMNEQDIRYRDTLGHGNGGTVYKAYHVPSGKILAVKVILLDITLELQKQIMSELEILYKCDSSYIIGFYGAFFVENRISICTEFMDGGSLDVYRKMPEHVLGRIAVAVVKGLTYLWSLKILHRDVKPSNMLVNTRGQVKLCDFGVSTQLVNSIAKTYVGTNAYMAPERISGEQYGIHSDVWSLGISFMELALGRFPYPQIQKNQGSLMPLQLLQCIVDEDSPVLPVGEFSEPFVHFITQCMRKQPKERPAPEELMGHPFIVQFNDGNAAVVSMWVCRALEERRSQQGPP

[5] = target: Tyrosine-protein kinase Blk (Homo sapiens, UniProt P51451); settings: at 1 µM
Tyrosine-protein kinase Blk, sequence (P51451 whole entry, looked up): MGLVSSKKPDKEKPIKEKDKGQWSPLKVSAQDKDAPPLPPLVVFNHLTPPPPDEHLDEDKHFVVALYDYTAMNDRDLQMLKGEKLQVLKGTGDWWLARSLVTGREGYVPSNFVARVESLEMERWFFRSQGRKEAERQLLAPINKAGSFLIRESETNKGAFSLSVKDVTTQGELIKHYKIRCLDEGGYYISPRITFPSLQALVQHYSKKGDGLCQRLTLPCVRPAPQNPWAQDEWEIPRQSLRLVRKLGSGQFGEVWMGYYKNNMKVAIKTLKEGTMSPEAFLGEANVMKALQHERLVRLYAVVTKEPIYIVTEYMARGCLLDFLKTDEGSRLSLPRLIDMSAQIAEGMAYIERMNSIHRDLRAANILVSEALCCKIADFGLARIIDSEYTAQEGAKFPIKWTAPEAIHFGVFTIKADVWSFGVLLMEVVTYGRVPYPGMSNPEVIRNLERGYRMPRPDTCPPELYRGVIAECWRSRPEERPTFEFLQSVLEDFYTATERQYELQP

[6] = target: Mast/stem cell growth factor receptor Kit (Homo sapiens, UniProt P10721); settings: at 1 µM
Mast/stem cell growth factor receptor Kit, sequence (P10721 whole entry): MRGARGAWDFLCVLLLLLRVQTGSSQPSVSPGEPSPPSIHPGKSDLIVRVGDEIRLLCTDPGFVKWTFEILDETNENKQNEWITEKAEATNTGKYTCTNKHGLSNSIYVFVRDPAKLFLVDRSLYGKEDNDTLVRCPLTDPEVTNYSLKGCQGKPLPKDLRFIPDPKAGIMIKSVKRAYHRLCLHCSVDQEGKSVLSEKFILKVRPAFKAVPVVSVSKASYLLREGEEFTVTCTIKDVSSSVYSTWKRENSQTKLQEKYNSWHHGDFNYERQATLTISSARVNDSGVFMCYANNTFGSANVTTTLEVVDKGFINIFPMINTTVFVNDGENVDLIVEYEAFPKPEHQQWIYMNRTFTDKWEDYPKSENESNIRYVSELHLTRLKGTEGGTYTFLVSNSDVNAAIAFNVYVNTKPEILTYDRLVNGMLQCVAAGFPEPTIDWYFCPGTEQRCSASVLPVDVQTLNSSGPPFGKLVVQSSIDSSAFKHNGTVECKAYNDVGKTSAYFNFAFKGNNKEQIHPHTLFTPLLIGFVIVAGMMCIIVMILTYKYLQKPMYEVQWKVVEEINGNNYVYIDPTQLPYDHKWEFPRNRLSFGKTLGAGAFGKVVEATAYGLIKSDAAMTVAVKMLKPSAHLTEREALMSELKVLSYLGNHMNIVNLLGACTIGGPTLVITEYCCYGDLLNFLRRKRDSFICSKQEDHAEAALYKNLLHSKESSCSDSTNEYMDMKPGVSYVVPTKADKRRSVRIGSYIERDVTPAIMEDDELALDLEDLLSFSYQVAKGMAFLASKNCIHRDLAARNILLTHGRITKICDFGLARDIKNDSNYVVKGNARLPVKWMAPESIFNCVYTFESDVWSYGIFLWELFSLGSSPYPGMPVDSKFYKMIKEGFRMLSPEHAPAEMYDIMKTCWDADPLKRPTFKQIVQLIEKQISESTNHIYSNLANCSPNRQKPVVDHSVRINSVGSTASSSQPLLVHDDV

[7] = target: cAMP-dependent protein kinase catalytic subunit alpha (Homo sapiens, UniProt P17612); test: Selectivity interaction (Kinase panel (University of Dundee)) EUB0000169b PRKACA; settings: at 10 µM
[8] = target: Serine/threonine-protein kinase PLK2 (Homo sapiens) (UniProt Q9NYY3); test: Selectivity interaction (KinomeScan (DiscoverX)) EUB0000169b PLK2; settings: at 1 µM
Serine/threonine-protein kinase PLK2 (Homo sapiens), sequence (Q9NYY3 whole entry, looked up): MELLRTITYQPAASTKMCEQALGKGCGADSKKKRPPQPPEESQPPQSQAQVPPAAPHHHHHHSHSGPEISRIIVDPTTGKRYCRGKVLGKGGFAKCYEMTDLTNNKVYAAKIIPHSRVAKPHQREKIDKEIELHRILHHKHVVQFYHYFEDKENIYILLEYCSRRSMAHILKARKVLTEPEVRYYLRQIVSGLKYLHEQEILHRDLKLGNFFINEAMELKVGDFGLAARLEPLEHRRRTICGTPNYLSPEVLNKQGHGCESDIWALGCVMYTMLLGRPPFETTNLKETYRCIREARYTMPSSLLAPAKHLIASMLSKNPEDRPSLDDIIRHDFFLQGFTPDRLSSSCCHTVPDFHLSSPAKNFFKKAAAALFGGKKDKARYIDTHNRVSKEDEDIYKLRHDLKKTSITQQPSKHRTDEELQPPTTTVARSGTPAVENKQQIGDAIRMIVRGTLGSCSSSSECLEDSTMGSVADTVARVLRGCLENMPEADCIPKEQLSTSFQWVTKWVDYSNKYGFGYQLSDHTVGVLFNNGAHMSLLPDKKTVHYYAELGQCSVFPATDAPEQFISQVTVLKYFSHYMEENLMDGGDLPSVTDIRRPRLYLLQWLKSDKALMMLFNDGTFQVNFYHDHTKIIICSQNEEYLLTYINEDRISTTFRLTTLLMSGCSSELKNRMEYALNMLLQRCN

[9] = target: Dual specificity tyrosine-phosphorylation-regulated kinase 1A (Homo sapiens, UniProt Q13627); test: Selectivity interaction (Kinase panel (University of Dundee)) EUB0000169b DYRK1A; settings: at 10 µM
[10] = target: eIF-2-alpha kinase GCN2 (Homo sapiens) (UniProt Q9P2K8); test: Selectivity interaction (KinomeScan (DiscoverX)) EUB0000702a EIF2AK4; settings: at 1 µM
[11] = target: Dual specificity protein kinase CLK1 (Homo sapiens, UniProt P49759); test: Selectivity interaction (KinomeScan (DiscoverX)) EUB0000702a CLK1; settings: at 1 µM
Dual specificity protein kinase CLK1, sequence (P49759 whole entry, looked up): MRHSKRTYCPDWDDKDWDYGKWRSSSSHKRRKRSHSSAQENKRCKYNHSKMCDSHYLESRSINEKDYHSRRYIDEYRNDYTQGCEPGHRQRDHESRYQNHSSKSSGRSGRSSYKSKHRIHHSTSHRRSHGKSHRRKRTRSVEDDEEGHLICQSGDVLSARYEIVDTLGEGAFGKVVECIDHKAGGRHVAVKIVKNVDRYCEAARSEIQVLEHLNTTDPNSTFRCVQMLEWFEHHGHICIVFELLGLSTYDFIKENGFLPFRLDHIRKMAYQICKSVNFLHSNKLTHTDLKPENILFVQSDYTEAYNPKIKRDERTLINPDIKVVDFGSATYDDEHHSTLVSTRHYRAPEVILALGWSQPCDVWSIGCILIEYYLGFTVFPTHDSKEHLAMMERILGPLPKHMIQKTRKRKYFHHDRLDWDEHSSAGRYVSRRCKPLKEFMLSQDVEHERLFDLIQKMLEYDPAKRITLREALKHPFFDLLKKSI

[12] = target: Serine/threonine-protein kinase PLK3 (Homo sapiens, UniProt Q9H4B4); test: Selectivity interaction (KinomeScan (DiscoverX)) EUB0000702a PLK3; settings: at 1 µM
Serine/threonine-protein kinase PLK3, sequence (Q9H4B4 whole entry, looked up): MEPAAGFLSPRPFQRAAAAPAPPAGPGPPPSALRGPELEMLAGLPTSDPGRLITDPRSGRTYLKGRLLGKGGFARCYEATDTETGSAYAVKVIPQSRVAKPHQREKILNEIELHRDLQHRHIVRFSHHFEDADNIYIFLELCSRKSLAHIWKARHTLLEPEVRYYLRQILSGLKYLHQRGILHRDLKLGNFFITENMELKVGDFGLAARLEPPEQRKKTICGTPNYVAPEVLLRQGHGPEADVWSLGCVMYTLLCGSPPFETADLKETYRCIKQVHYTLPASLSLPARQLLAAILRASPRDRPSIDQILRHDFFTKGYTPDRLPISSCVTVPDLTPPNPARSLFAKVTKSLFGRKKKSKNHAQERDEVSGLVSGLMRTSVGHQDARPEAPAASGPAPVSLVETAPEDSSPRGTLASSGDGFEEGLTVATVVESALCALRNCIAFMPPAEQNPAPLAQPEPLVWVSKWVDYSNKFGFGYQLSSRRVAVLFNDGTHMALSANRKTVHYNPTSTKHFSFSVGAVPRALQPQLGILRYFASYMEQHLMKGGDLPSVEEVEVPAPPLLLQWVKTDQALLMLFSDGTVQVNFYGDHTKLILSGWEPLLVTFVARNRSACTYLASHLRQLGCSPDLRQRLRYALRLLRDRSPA

[13] = target: Serine/threonine-protein kinase TAO1 (Homo sapiens) (UniProt Q7L7X3); test: Selectivity interaction (KinomeScan (DiscoverX)) EUB0000178b TAOK1; settings: at 1 µM
Serine/threonine-protein kinase TAO1 (Homo sapiens), sequence (Q7L7X3 whole entry): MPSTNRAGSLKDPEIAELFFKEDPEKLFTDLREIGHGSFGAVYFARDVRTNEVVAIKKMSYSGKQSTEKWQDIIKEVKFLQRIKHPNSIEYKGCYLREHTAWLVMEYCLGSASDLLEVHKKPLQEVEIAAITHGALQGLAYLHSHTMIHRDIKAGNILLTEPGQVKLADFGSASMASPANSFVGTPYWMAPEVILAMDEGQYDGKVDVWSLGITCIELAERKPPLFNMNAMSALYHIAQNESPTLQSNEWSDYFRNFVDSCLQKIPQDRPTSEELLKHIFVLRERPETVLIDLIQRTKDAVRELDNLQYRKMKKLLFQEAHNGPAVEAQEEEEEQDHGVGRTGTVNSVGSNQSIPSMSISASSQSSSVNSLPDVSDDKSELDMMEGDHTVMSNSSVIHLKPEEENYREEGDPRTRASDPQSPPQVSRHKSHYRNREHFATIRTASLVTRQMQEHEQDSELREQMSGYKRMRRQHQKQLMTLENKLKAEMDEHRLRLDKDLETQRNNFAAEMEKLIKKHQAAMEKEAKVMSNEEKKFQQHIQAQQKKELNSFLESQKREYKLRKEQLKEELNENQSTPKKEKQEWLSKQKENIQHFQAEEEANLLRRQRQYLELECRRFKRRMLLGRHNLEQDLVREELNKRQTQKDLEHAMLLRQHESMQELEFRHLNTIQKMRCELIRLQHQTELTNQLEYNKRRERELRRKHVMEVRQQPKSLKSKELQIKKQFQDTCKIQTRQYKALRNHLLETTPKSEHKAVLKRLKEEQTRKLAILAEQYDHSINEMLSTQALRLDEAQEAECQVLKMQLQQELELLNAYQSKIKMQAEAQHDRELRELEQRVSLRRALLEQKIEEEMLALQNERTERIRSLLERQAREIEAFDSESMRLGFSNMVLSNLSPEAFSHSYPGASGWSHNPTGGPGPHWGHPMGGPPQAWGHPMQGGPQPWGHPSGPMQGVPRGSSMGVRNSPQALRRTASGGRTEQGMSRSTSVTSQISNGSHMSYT

[14] = target: Mitogen-activated protein kinase kinase kinase 2 (Homo sapiens) (UniProt Q9Y2U5); test: Selectivity interaction (KinomeScan (DiscoverX)) EUB0000178b MAP3K2; settings: at 1 µM
[15] = target: Platelet-derived growth factor receptor beta (Homo sapiens, UniProt P09619); test: Selectivity interaction (KinomeScan (DiscoverX)) EUB0000698a PDGFRB; settings: at 10 µM

`CNC(=O)c1ccc(Nc2ncc(C(F)(F)F)c(NCc3nccnc3N(C)S(C)(=O)=O)n2)cc1` [DEFACTINIB] showed a % of control [1] of 1.7%.

In the case of `C[C@H](c1ccnc(Nc2nc3ccc(-c4cc(N(C)C)ncn4)cc3[nH]2)c1)N1CCN(C(=O)CC(F)(F)F)CC1` [BAY-985], the Kd [2] is reported as 0.074 µM, the % of control [3] is reported as 31% and the % of control [4] is reported as 8.5%.

With `CCOc1cn(-c2ccc(F)cc2C)nc1C(=O)Nc1ccc(Oc2ccnc3cc(OC)c(OC)cc23)c(F)c1` the % of control [5] was < 10% and the % of control [6] was < 10%.

`CC[C@@H]1C(=O)N(C)c2cnc(Nc3ccc(C(=O)NC4CCN(C)CC4)cc3OC)nc2N1C1CCCC1` gave a % of control [7] of 100%, a % of control [8] of 1.2% and a % of control [9] of 72%.

Work on `CN(c1ccnc(CNc2nc(Nc3ccc4c(c3)CC(=O)N4)ncc2C(F)(F)F)n1)S(C)(=O)=O` [PF-00911705] yielded a % of control [10] of 6.7%, a % of control [11] of 4.4% and a % of control [12] of 1.7%.

With `CN1C(=O)c2sccc2N(C)c2nc(Nc3ccc(S(N)(=O)=O)cc3)ncc21` the % of control [13] was 2.6% and the % of control [14] was 2.6%.

`COc1cc2ncn(-c3cc(OCc4ccccc4C(F)(F)F)c(C(N)=O)s3)c2cc1OC` [GW843682X] was tested, and the % of control [15] was 5.3%.
